This note sets out measurements from ChEMBL document CHEMBL1201862, “PubChem BioAssay data set” (2004).

SMILES strings stand for the structures.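 In this assay, cells in 96-well plates receive the compound at five concentrations for 48 hours. Endpoints are linearly interpolated between the surrounding concentrations. Here, GI50 denotes the concentration required for 50% inhibition of growth.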 Active and inactive are the calls of the source. Rule as the data show it: active = GI50 up to about 1.1 µM and inactive = higher. Some results are limits rather than exact numbers.

Among the test systems are CAKI-1; CCRF-CEM; DMS-114; HCT-15; KM-20L2; KM12; M19-MEL; MCF7; Malme-3M; OVCAR-4; RPMI-8226; RXF 393; UACC-62; ACHN; LXFL 529; M14; BT-549; MDA-N; PC-3; T47D.
Common to all, as to test: NCI anticancer screen, dose series, 48 h

With `O=NN(CCF)C(=O)NC1CCSCC1`, the GI50 with CAKI-1 is > 100 µM (inactive); in the assay on CCRF-CEM it was > 100 µM (inactive); with DMS-114 it was > 100 µM (inactive); in the assay with HCT-15, greater than 100 µM; in the assay with KM-20L2, > 100 µM (inactive); with KM12, > 100 µM (inactive). The GI50 in the assay with M19-MEL, with MCF7, in the assay with Malme-3M, in the assay with OVCAR-4, in the assay on RPMI-8226 and in the assay with RXF 393 was > 100 µM (inactive) in each case. Moreover, in the assay on UACC-62, the GI50 was > 100 µM (inactive).
As for `COc1nc(O)c(N)c(NC2OC(CO)C(O)C(O)C2O)n1` (stereo not given), the GI50 is > 57.8 µM (inactive) with CCRF-CEM; > 100 µM (inactive) in the assay on DMS-114; greater than 100 µM in the assay on HCT-15; > 100 µM (inactive) with KM-20L2; > 100 µM (inactive) in the assay with KM12; > 100 µM (inactive) in the assay on M19-MEL. Also, the GI50 in the assay on MCF7, in the assay with Malme-3M, in the assay on OVCAR-4, in the assay on RPMI-8226, in the assay on RXF 393 and in the assay on UACC-62 was > 100 µM (inactive) each time.
In the case of `CCC(C(C)N1CC(=O)NC(=O)C1)N1CC(=O)NC(=O)C1` (stereo not given), the GI50 in the assay with CAKI-1 was > 100 µM (inactive); in the assay with CCRF-CEM, 4.93 µM (inactive); in the assay with DMS-114 it was 7.01 µM (inactive); in the assay with HCT-15, greater than 49.7 µM; in the assay with KM-20L2 it was > 69.2 µM (inactive); in the assay on KM12 it was > 100 µM (inactive). Also, the GI50 is 41.4 µM (inactive) with M19-MEL; 4.08 µM (inactive) with MCF7; 13.4 µM (inactive) with Malme-3M; > 100 µM (inactive) in the assay with OVCAR-4; 97.5 µM (inactive) in the assay on RPMI-8226; > 100 µM (inactive) in the assay with RXF 393. In addition, the GI50 with UACC-62 was > 100 µM (inactive).
With `CCCCSCC(NC(=O)/C=C/c1c(C)[nH]c(=O)[nH]c1=O)C(=O)OC` (stereo not given), the GI50 is 32.3 µM (inactive) in the assay with CAKI-1; 20 µM (inactive) in the assay on CCRF-CEM; 30.1 µM (inactive) in the assay on DMS-114; 148 µM in the assay on HCT-15; 61.7 µM (inactive) in the assay with KM-20L2; 24.9 µM (inactive) with KM12. The GI50 is 38.4 µM (inactive) in the assay on M19-MEL; 15.6 µM (inactive) in the assay with MCF7; 15.7 µM (inactive) with Malme-3M; 13.8 µM (inactive) in the assay with OVCAR-4; 104 µM (inactive) with RPMI-8226; 56.5 µM (inactive) in the assay on RXF 393. Moreover, the GI50 in the assay on UACC-62 is 51.9 µM (inactive).
With `CCN(CC)CC(C)(C)C(=O)/C=C/c1ccc(C)cc1`, the GI50 is 14.6 µM (inactive) in the assay on ACHN; 12.6 µM (inactive) with CAKI-1; 2.82 µM (inactive) with CCRF-CEM; 3.61 µM with HCT-15; 4.17 µM (inactive) in the assay on KM-20L2; 5.87 µM (inactive) with KM12. Besides, the GI50 with LXFL 529 was 7.31 µM (inactive); with M14, 12.1 µM (inactive); with M19-MEL, 9.46 µM (inactive); with Malme-3M, 9.46 µM (inactive); with OVCAR-4 it was 11.6 µM (inactive); in the assay with RXF 393, 9.62 µM (inactive). Also, the GI50 in the assay with UACC-62 was 13.6 µM (inactive).
In the case of `Cc1ccccc1NC(=O)CC(=O)N1N=C(N2c3ccccc3Sc3ccccc32)CC1c1ccccc1` (stereo not given), the GI50 in the assay with ACHN was > 100 µM (inactive); in the assay on CAKI-1, > 100 µM (inactive); in the assay on DMS-114 it was > 100 µM (inactive); with HCT-15, greater than 100 µM; with KM-20L2, > 100 µM (inactive); with KM12 it was > 100 µM (inactive). Further, the GI50 in the assay on LXFL 529, with M14, with M19-MEL, with Malme-3M, in the assay on OVCAR-4 and in the assay with RPMI-8226 was > 100 µM (inactive) throughout. The GI50 in the assay on UACC-62 was > 100 µM (inactive).
Consider `Cc1cc(Cl)ccc1/N=C1/NC(=O)C(CC(=O)Nc2cccc(C)c2C)S1` (stereo not given), for which the GI50 with ACHN is 26 µM (inactive); in the assay with CAKI-1, 23.6 µM (inactive); in the assay on CCRF-CEM it was 22.2 µM (inactive); in the assay with DMS-114 it was 22.8 µM (inactive); with HCT-15, 28.4 µM; in the assay with KM-20L2, 29.9 µM (inactive). In addition, the GI50 with KM12 was 32.4 µM (inactive); in the assay with M14, 18.1 µM (inactive); in the assay on M19-MEL, 35.1 µM (inactive); in the assay with Malme-3M, 24.2 µM (inactive); with OVCAR-4 it was 26.7 µM (inactive); with RPMI-8226 it was 19.7 µM (inactive). The GI50 in the assay with UACC-62 is 25.9 µM (inactive).
With `COC1=CC(=O)c2ccccc2C1(CCC=C(C)C)C1=NC(C)(C)CO1` (stereo not given), the GI50 in the assay on ACHN was 6.62 µM (inactive); in the assay with CAKI-1, > 100 µM (inactive); in the assay with CCRF-CEM it was 28.6 µM (inactive); in the assay with HCT-15, 61.1 µM; with KM-20L2, > 100 µM (inactive); in the assay with KM12, > 100 µM (inactive). The GI50 in the assay on LXFL 529 is 50.7 µM (inactive); in the assay with M14 it was > 100 µM (inactive); with M19-MEL, 48.2 µM (inactive); in the assay with Malme-3M, 78.7 µM (inactive); with OVCAR-4, 71.9 µM (inactive); in the assay on RPMI-8226, 32.2 µM (inactive). Further, the GI50 is 56.4 µM (inactive) with RXF 393 and > 100 µM (inactive) with UACC-62.
`CC1C=CC(=O)C(n2cc(F)c(=O)[nH]c2=O)O1` (stereo not given): the GI50 in the assay with ACHN is 20 µM (inactive); with CAKI-1, 11.6 µM (inactive); in the assay on CCRF-CEM, 8.89 µM (inactive); with DMS-114 it was 15.9 µM (inactive); with HCT-15, 16.6 µM; in the assay with KM-20L2, 21.3 µM (inactive). For the same compound, the GI50 in the assay with M14 is 18.1 µM (inactive); in the assay with M19-MEL, 18.5 µM (inactive); with Malme-3M, 14.2 µM (inactive); in the assay with OVCAR-4, 18.5 µM (inactive); with RPMI-8226, 14.4 µM (inactive); with RXF 393, 19.8 µM (inactive). The GI50 with UACC-62 was 16.2 µM (inactive).
As to `Cc1ccccc1NC(=O)C(=O)C1CN(c2ccccc2)N=C1N` (stereo not given), the GI50 with CAKI-1, with CCRF-CEM, in the assay with KM-20L2, in the assay on LXFL 529, with M14 and in the assay on M19-MEL was > 100 µM (inactive) in each case. The GI50 with Malme-3M, with OVCAR-4 and in the assay with RXF 393 was > 100 µM (inactive) each time.
Turning to `CC1Cc2c(N)nc(N3CCOCC3)nc2NC1=O` (stereo not given), the GI50 was > 100 µM (inactive) in the assay on ACHN; > 100 µM (inactive) in the assay on CCRF-CEM; > 100 µM (inactive) in the assay on DMS-114; greater than 100 µM with HCT-15; > 100 µM (inactive) in the assay on KM-20L2; > 100 µM (inactive) with KM12. Moreover, the GI50 in the assay on M14, in the assay on M19-MEL, in the assay on Malme-3M, in the assay with RPMI-8226, in the assay with RXF 393 and with UACC-62 was > 100 µM (inactive) throughout.
For `CCCCCCC/C=C1\CCC(CN(C)C)C1=O` (stereo not given), the GI50 with ACHN was 17.6 µM (inactive); in the assay with BT-549, 14.7 µM (inactive); with CAKI-1, 16.3 µM (inactive); with CCRF-CEM, 3.03 µM (inactive); with HCT-15 it was 8.36 µM; in the assay on KM-20L2, 19.1 µM (inactive). For the same compound, the GI50 in the assay on KM12 is 4.07 µM (inactive); in the assay on LXFL 529, 7.78 µM (inactive); in the assay with M14, 9.71 µM (inactive); with MCF7, 3.24 µM (inactive); in the assay with MDA-N, 13.2 µM (inactive); in the assay on Malme-3M, 10.8 µM (inactive). In addition, the GI50 with OVCAR-4 is 16.6 µM (inactive); in the assay with PC-3, 14.5 µM (inactive); in the assay on RPMI-8226, 0.968 µM (active); in the assay on RXF 393, 5.93 µM (inactive); in the assay on T47D it was 2.98 µM (inactive); with UACC-62, 14.6 µM (inactive).
`Cc1ccc2c(c1)C1(OC(=O)c3ccccc31)c1ccc(F)cc1O2` (stereo not given): the GI50 in the assay on CAKI-1 is 30 µM (inactive); with CCRF-CEM, 31.8 µM (inactive); in the assay with DMS-114 it was 34.6 µM (inactive); with KM-20L2, 44.1 µM (inactive); in the assay on KM12, 51.3 µM (inactive); with LXFL 529 it was 56.5 µM (inactive). Further, the GI50 is 28.6 µM (inactive) in the assay with M14; 57 µM (inactive) in the assay with M19-MEL; 67.8 µM (inactive) in the assay with Malme-3M; 49.8 µM (inactive) in the assay on OVCAR-4; 24.2 µM (inactive) in the assay on RPMI-8226; 70.6 µM (inactive) with UACC-62.
For `CC(=O)NC1=C(NCC(C)(C)C)C(=O)c2ccccc2C1=O`, the GI50 is 26.9 µM (inactive) in the assay on ACHN; 38.5 µM (inactive) in the assay with CCRF-CEM; 55.3 µM in the assay with HCT-15; 57.8 µM (inactive) in the assay with KM-20L2; 82.6 µM (inactive) with KM12; > 100 µM (inactive) in the assay with LXFL 529. In addition, the GI50 in the assay with M14 was > 100 µM (inactive); in the assay on M19-MEL, 21.1 µM (inactive); in the assay with Malme-3M it was 34.3 µM (inactive); with OVCAR-4, > 100 µM (inactive); in the assay with RXF 393 it was 37 µM (inactive); in the assay with UACC-62 it was 39 µM (inactive).
Take `Cn1cnc([N+](=O)[O-])c1Sc1nc2cc([N+](=O)[O-])ccc2[nH]1`: the GI50 was 36.5 µM (inactive) in the assay on ACHN; 12.6 µM (inactive) in the assay on CAKI-1; 15.4 µM (inactive) in the assay with CCRF-CEM; 13.5 µM in the assay with HCT-15; 24.8 µM (inactive) with KM-20L2; 34.9 µM (inactive) in the assay with KM12. Also, the GI50 with LXFL 529 is 12.6 µM (inactive); in the assay with M14 it was 34.4 µM (inactive); in the assay on M19-MEL, 17.4 µM (inactive); in the assay with Malme-3M, > 10 µM (inactive); with OVCAR-4, 46.6 µM (inactive); with RPMI-8226, 21.6 µM (inactive). In addition, the GI50 in the assay on RXF 393 was 17.5 µM (inactive); with UACC-62, 11.9 µM (inactive).
`CC1CCCCc2nc3c(c(=O)n21)CCCC3` (stereo not given): the GI50 in the assay on ACHN is > 100 µM (inactive); with CAKI-1, > 100 µM (inactive); in the assay with HCT-15 it was greater than 100 µM; in the assay with KM-20L2, > 100 µM (inactive); in the assay with KM12, > 100 µM (inactive); in the assay on LXFL 529, > 100 µM (inactive). The GI50 in the assay with M14, in the assay with M19-MEL, with Malme-3M, in the assay on OVCAR-4 and in the assay on UACC-62 was > 100 µM (inactive) throughout.
